# Entries after “also recorded” stand apart in the source; their conditions may differ. Primed or numbered codes have the meaning given here. Where no end group is shown, it is not given here. [ ]: non-standard residue; d: D form. PEG6′ = Peg: PEG6 in place of glycine
# What was measured:
# [1] = tested on: human intestinal Caco2-BBE (C2) cells; assay: 14C-oxalate influx (oxalate transport) by Caco2-BBE (C2) cells; format: cell-based; conditions: for effect of trace element added to P8 or P9 on oxalate transport, in words: C2 cells, versus peptide alone
# Description: Toward this end, Of culture conditioned medium (CM) was prepared as recently reported (Ref. 4; herein incorporated by reference in its entirety) and human intestinal Caco2-BBE (C2) cells were used to evaluate the effects of Of CM on intestinal oxalate transport. Apical oxalate uptake by C2 cells was measured by imposing an outward Cl gradient by removing extracellular Cl [Cli>Clo] (Refs. 3, 4, 14; incorporated by reference in their entireties) and measuring DIDS (anion exchange inhibitor)-sensitive influx of 14C-oxalate in exchange for intracellular Cl [i.e. apical Cl-oxalate exchange activity, ≥49% of which is mediated by the oxalate transporter SLC26A6 (A6) in C2 cells (4, 12))].
# The inventors sought to identify trace elements to better stimulate oxalate transport by facilitating the binding of P8 and/or P9 to a cell surface receptor. The inventors analyzed combinations of P8 and P9 alone or with aluminum, zinc, or magnesium by measuring C14 oxalate transport in C2 cells.
# [2] = tested on: human sigmoid colon organoid; assay: oxalate transport by human sigmoid colon organoid; format: cell-based
# Description: (§1) Although the transformed C2 cells resemble the native epithelium, they don't fully recapitulate the in vivo physiological responses. Primary stem-cell derived intestinal organoids (Orgs) were recently established as an ex vivo model of the intestinal epithelium, and they mimic the full spectrum of physiological responses in vivo. Therefore, experiments were conducted during development of embodiments herein to confirm the C2 findings in colonic organoids.
# (§2) To recapitulate the findings in vivo, primary stem-cell derived intestinal organoids (Org) were used which have been established as an ex vivo model of the intestinal epithelium with a full spectrum of physiological responses found in vivo (Ref. 35; incorporated by reference in its entirety). A human sigmoid colonic Org (from a healthy individual) was grown and maintained as previously reported (Ref. 34; incorporated by reference in its entirety). Org cells were plated onto collagen-coated transwell filters and formed monolayers. Monolayer confluency and differentiation was confirmed by transepithelial electrical resistance measurements (Ref. 34; incorporated by reference in its entirety).
# [3] = tested on: human distal colon organoid; assay: oxalate transport by human distal colon organoid; format: cell-based
# Description: as §1, §2
# human ileum organoid = assay: oxalate transport by human ileum organoid; format: cell-based; conditions: 500 μM DIDS; ileum Org
# [4] = tested on: human intestinal Caco2-BBE (C2) cells; conditions: cited from earlier work; for stimulation of oxalate transport by cells (Sel1 proteins), in words: PCT/US18/14494
molecule,measurement,setting,value
Ac-AKAQYGLGILYAKGQGVAPDQEKALILYRMAATQG [Peptide P9-Ac],"stimulation of oxalate transport (14C-oxalate influx) by C2 cells, in words","[1]; Caco2-BBE cells, listed as P9 with N-terminal acetylation",significantly stimulate
same,"stimulation of oxalate transport by sigmoid colon organoid, in words",[2],significantly stimulate
same,"stimulation of oxalate transport by distal colon organoid, in words",[3],significantly stimulate
ARAQFNLGKTFYIGAGINKNTDKAVYWFIKAANQG [Peptide P5],"stimulation of oxalate transport (14C-oxalate influx) by C2 cells, in words",[1]; Caco2-BBE cells,no effects
DAQYMLGAMSVEGI(d-alanine)LPKDSQVALTWLSKAAAQGD (DAQYMLGAMSVEGI[dA]LPKDSQVALTWLSKAAAQGD) [Peptide P8-Daa],"stimulation of oxalate transport (14C-oxalate influx) by C2 cells, in words","[1]; Caco2-BBE cells, listed as P8 with G15 replaced with D-alanine",similarly stimulated; also recorded: significantly stimulate
Ac-DAQYMLGAMSVEGIGLPKDSQVALTWLSKAAAQGD [Peptide P8-Ac],"stimulation of oxalate transport (14C-oxalate influx) by C2 cells, in words","[1]; Caco2-BBE cells, listed as P8 with N-terminal acetylation",significantly stimulate
"O=S(=O)(O)c1cc(N=C=S)ccc1C=Cc1ccc(N=C=S)cc1S(=O)(=O)O [DIDS, reference compound]",inhibition of oxalate transport,human ileum organoid,~80%
same,inhibition of 14C-oxalate influx,"[2]; 100 μM DIDS, sigmoid colonic Org",~70%
[Al] [aluminum],"effect of trace element added to P8 or P9 on oxalate transport, in words",[1],did not result in increased oxalate transport
"O=S(=O)(NCCNC/C=C/c1ccc(Br)cc1)c1cccc2cnccc12 [Peptide H89, H89, reference compound]",effect of pretreatment on CM-induced oxalate transport,"[4]; PKA inhibitor pretreatment, Ref. 4",completely blocked
DAQYMLA(Peg)MSVE(Peg)I(Peg)LPKDSQVALTWLSKAAAQ(Peg)D (DAQYMLA[PEG6′]MSVE[PEG6′]I[PEG6′]LPKDSQVALTWLSKAAAQ[PEG6′]D) [Peptide P8-Peg],"stimulation of oxalate transport (14C-oxalate influx) by C2 cells, in words","[1]; Caco2-BBE cells, listed as P8 with all glycines replaced with PEG6",similarly stimulated; also recorded: significantly stimulate
DAQYMLGAMSVEGIGLPKDSQVALTWLSKAAAQGD-Am (DAQYMLGAMSVEGIGLPKDSQVALTWLSKAAAQGD-NH2) [Peptide P8-Am],"stimulation of oxalate transport (14C-oxalate influx) by C2 cells, in words","[1]; Caco2-BBE cells, listed as P8 with C-terminal amidation",significantly stimulate
QSQYNLGIAYEEGWGAEKNPENAVFWYRKAAEQGH [Peptide P4],stimulation of oxalate transport (14C-oxalate influx) by C2 cells,[1]; Caco2-BBE cells,1.5 fold
AKAQY(Peg)L(Peg)ILYAK(Peg)Q(Peg)VAPDQEKALILYRMAATQ(Peg) (AKAQY[PEG6′]L[PEG6′]ILYAK[PEG6′]Q[PEG6′]VAPDQEKALILYRMAATQ[PEG6′]) [Peptide P9-Peg],"stimulation of oxalate transport (14C-oxalate influx) by C2 cells, in words","[1]; Caco2-BBE cells, listed as P9 with all glycines replaced with PEG6",similarly stimulated; also recorded: significantly stimulate
AKAQYGLGILYAKGQ(d-alanine)VAPDQEKALILYRMAATQG (AKAQYGLGILYAKGQ[dA]VAPDQEKALILYRMAATQG) [Peptide P9-Daa],"stimulation of oxalate transport (14C-oxalate influx) by C2 cells, in words","[1]; Caco2-BBE cells, listed as P9 with G16 replaced with D-alanine",similarly stimulated; also recorded: significantly stimulate
same,"stimulation of oxalate transport by sigmoid colon organoid, in words",[2],significantly stimulate
same,"stimulation of oxalate transport by distal colon organoid, in words",[3],significantly stimulate
AKAQYGLGILYAKGQGVAPDQEKALILYRMAATQG-Am (AKAQYGLGILYAKGQGVAPDQEKALILYRMAATQG-NH2) [Peptide P9-Am],"stimulation of oxalate transport (14C-oxalate influx) by C2 cells, in words","[1]; Caco2-BBE cells, listed as P9 with C-terminal amidation",significantly stimulate
same,"stimulation of oxalate transport by sigmoid colon organoid, in words",[2],significantly stimulate
same,"stimulation of oxalate transport by distal colon organoid, in words",[3],significantly stimulate
[Cl-].[Cl-].[Zn+2] [zinc chloride],"effect of trace element added to P8 or P9 on oxalate transport, in words",[1],not
ESQNNLGALYNDGNGVDRDYQEAVFWYRKSALQGD [Peptide P6],"stimulation of oxalate transport (14C-oxalate influx) by C2 cells, in words",[1]; Caco2-BBE cells,no effects
318: Sel1 protein 318 (52 kDa) of Oxalobacter formigenes (protein) MKRRVLYGVLFAVLAGCSAGALASVSGLSDGLAQLERRQFESAYATLMPEAEKGNPRAALEVGKLLLTGRGVAKDEAAAVKWLLVAADSGNRDAQYMLGAMSVEGIGLPKDSQVALTWLSKAAAQGDARAKTALGILMQSAGPGSQHTEQAARWFERAAASGEPEAQRRWALMLASGRGVAKNEGEALKWFKKAAVAGDVEAQRNLGIMLSTGKGVTGGKPDFAEAARWYGLAAKKGDAKAQYGLGILYAKGQGVAPDQEKALILYRMAATQGLATAEYAVGLAYAYGRGTAQNDVKAADWFEAAAQQGVVRAQYNLALMLEAGRGRPVDTVAASKWFLMAAEKGLREAQYNMGYHYAEGKGVPRDQGKAVFWYEKAAAAGDVKAQYNLGMLYLNGVNGKADDEKAAFFYRMAAGAGYGPAMYRLAVLYEEGRGVKQSYQLAGEWYERADLAAKVKIDEAMKKNPHPFVQRTLQVPDDLNQSSDKLAGH,"stimulation of oxalate transport by cells (Sel1 proteins), in words",[4],significantly stimulating; also recorded: most potent stimulators
301: Sel1 protein 301 (54 kDa) of Oxalobacter formigenes (protein) MSSVIADSQQPAVSEENANKIILDEEKAVIQCNERYKTENDEKGDEETVSWCRKAAKSGNAEAQYLFGMLVYDGRGVQQDNCVAMLWWMKAAEQNHAKALVMLGNLHRKGQCIAENYPKAIAYWKRAAVQNNVWAYHNLGTAYYDGIGVDKNPHEAVRWWKKAAELGFPESQNNLGALYNDGNGVDRDYQEAVFWYRKSALQGDELGQYNLGVAYYYGRGIKKDFSEAVSWYKKSAEQDYAQAQHNLGVTYYEGEGIKKDYAKAVYWWKKAAEQGIPQSQYNLGIAYEEGWGAEKNPENAVFWYRKAAEQGHADAQNRLGIAYRYGTGVRKNPALSVKWLEKAAKQGLARAQFNLGKTFYIGAGINKNTDKAVYWFIKAANQGFTEAQAYIGMIYFKGKYVAKNEKKGFYWLKKAAEKDSAKAQAFLGALYIAGNEVKPNIKEGVALTKKAALQGNYEAQTLLGFCYENGLEVKKDLIAAYALYLSASPHFDFAEKARLDLERKLSEQEIAKAISVNTAKLFE,"stimulation of oxalate transport by cells (Sel1 proteins), in words",[4],significantly stimulating; also recorded: most potent stimulators

# From patent publication US12016899B2, “Compositions comprising Sel1-derived peptides and methods of treatment/prevention of excess oxalate levels and associated conditions/diseases therewith” (The University of Chicago, priority 2018, dated 2024)
